From the NIST ThermoML archive (doi:10.1021/je100526j)
Several values for one entry are separate records, joined by “and”; a condition that tells them apart may be missing. Identical values can stand only once. ± gives the expanded uncertainty stated by the source.

Experiments:
[1] = for mass density: Liquid; for Normal melting temperature: Crystal, visual observation
[2] = xn = mol fraction of the nth substance listed; conditions: 101 kPa, Liquid

c1ccccc1 [benzene]
[1], 101 kPa
Conditions	mass density [kg/m3]
298.15 K	873.63 ± 0.39
308.15 K	862.91 ± 0.4
318.15 K	852.12 ± 0.41
328.15 K	841.24 ± 0.43
338.15 K	830.26 ± 0.44

Conditions	Normal melting temperature [°C]
[1]	5.5 ± 0.3

c1ccccc1 [benzene] + c1cc[nH]c1
[2], x2 = 0
Conditions	mass density [kg/m3]
298.15 K	873.63 ± 0.39
308.15 K	862.91 ± 0.4
318.15 K	852.12 ± 0.41
328.15 K	841.24 ± 0.43
338.15 K	830.26 ± 0.44

C1CCCCC1 [cyclohexane]
[1], 101 kPa
Conditions	mass density [kg/m3]
298.15 K	773.87 ± 0.51
308.15 K	764.38 ± 0.52
318.15 K	754.77 ± 0.54
328.15 K	745.04 ± 0.55
338.15 K	735.18 ± 0.57

Conditions	Normal melting temperature [°C]
[1]	7 ± 1.5

C1CCCCC1 [cyclohexane] + c1cc[nH]c1
[2], x2 = 0
Conditions	mass density [kg/m3]
298.15 K	773.87 ± 0.51
308.15 K	764.38 ± 0.52
318.15 K	754.77 ± 0.54
328.15 K	745.04 ± 0.55
338.15 K	735.18 ± 0.57

c1cc[nH]c1 [pyrrole]
[1], Vibrating tube method
Conditions	mass density [kg/m3]
298.15 K, 100 kPa	965.54 ± 0.29
298.15 K, 101 kPa	965.54 ± 0.39
298.15 K, 500 kPa	965.71 ± 0.29
298.15 K, 1000 kPa	966 ± 0.29
298.15 K, 1500 kPa	966.3 ± 0.29
298.15 K, 2000 kPa	966.59 ± 0.3
298.15 K, 2500 kPa	966.9 ± 0.3
298.15 K, 3000 kPa	967.19 ± 0.3
298.15 K, 4000 kPa	967.77 ± 0.3
298.15 K, 5000 kPa	968.35 ± 0.3
308.15 K, 101 kPa	956.83 ± 0.4
318.15 K, 101 kPa	948.03 ± 0.4
328.15 K, 101 kPa	939.14 ± 0.41
338.15 K, 101 kPa	930.13 ± 0.42

Conditions	Normal melting temperature
[1]	-23.5 ± 0.3 °C and -23.4 ± 0.3 °C

c1cc[nH]c1 [pyrrole] + C1CCCCC1
mass density [kg/m3], [2]
Conditions	298.15 K	308.15 K	318.15 K	328.15 K	338.15 K
x1 = 0.0749	786.03 ± 0.52	776.43 ± 0.54	766.72 ± 0.55	756.88 ± 0.56	746.91 ± 0.58
x1 = 0.1409	797.78 ± 0.51	788.17 ± 0.53	778.44 ± 0.54	768.58 ± 0.55	758.6 ± 0.57
x1 = 0.1864	805.48 ± 0.51	795.87 ± 0.52	786.14 ± 0.54	776.3 ± 0.55	766.32 ± 0.56
x1 = 0.2637	819.91 ± 0.5	810.32 ± 0.51	800.64 ± 0.52	790.86 ± 0.54	780.96 ± 0.55
x1 = 0.3549	837.14 ± 0.49	827.63 ± 0.5	818.03 ± 0.51	808.35 ± 0.52	798.62 ± 0.54
x1 = 0.4446	854.23 ± 0.48	844.82 ± 0.49	835.34 ± 0.5	825.81 ± 0.51	816.3 ± 0.52
x1 = 0.5058	866.13 ± 0.47	856.8 ± 0.48	847.4 ± 0.49	837.91 ± 0.5	828.38 ± 0.51
x1 = 0.6032	884.76 ± 0.46	875.58 ± 0.47	866.33 ± 0.48	856.97 ± 0.49	847.56 ± 0.5
x1 = 0.6712	898.56 ± 0.46	889.48 ± 0.47	880.32 ± 0.48	870.17 ± 0.49	861.68 ± 0.5
x1 = 0.7183	908.28 ± 0.46	899.28 ± 0.47	890.2 ± 0.47	881.03 ± 0.49	871.79 ± 0.49
x1 = 0.761	916.78 ± 0.45	907.83 ± 0.46	898.79 ± 0.47	889.65 ± 0.48	880.41 ± 0.49
x1 = 0.8376	932.14 ± 0.45	923.29 ± 0.46	914.35 ± 0.46	905.29 ± 0.47	896.1 ± 0.48
x1 = 0.8824	941.41 ± 0.45	932.59 ± 0.45	923.7 ± 0.46	914.69 ± 0.47	905.55 ± 0.48
x1 = 0.9424	953.79 ± 0.44	945.05 ± 0.45	936.21 ± 0.46	927.25 ± 0.47	918.18 ± 0.47
x1 = 1	965.54 ± 0.39	956.83 ± 0.4	948.03 ± 0.4	939.14 ± 0.41	930.13 ± 0.42

c1cc[nH]c1 [pyrrole] + c1ccccc1
mass density [kg/m3], [2]
Conditions	298.15 K	308.15 K	318.15 K	328.15 K	338.15 K
x1 = 0.0447	878.11 ± 0.4	867.49 ± 0.41	856.79 ± 0.42	846 ± 0.44	835.1 ± 0.45
x1 = 0.1287	886.6 ± 0.39	876.17 ± 0.4	865.66 ± 0.42	855.06 ± 0.43	844.34 ± 0.44
x1 = 0.2144	894.89 ± 0.39	884.68 ± 0.4	874.36 ± 0.41	863.95 ± 0.42	853.41 ± 0.44
x1 = 0.3142	904.35 ± 0.39	894.36 ± 0.4	884.28 ± 0.41	874.1 ± 0.42	863.91 ± 0.43
x1 = 0.3916	911.83 ± 0.38	902.01 ± 0.39	892.11 ± 0.41	882.08 ± 0.42	871.95 ± 0.43
x1 = 0.503	922.04 ± 0.38	912.44 ± 0.39	902.77 ± 0.4	892.98 ± 0.41	883.08 ± 0.43
x1 = 0.5973	930.57 ± 0.38	921.15 ± 0.39	911.66 ± 0.4	902.07 ± 0.41	892.35 ± 0.42
x1 = 0.6693	936.98 ± 0.38	927.73 ± 0.39	918.38 ± 0.4	908.92 ± 0.41	899.34 ± 0.42
x1 = 0.7371	942.99 ± 0.39	933.85 ± 0.4	924.62 ± 0.4	915.29 ± 0.41	905.82 ± 0.42
x1 = 0.8207	950.33 ± 0.39	941.34 ± 0.4	932.26 ± 0.41	923.07 ± 0.42	913.74 ± 0.43
x1 = 0.8732	954.72 ± 0.39	945.81 ± 0.4	936.8 ± 0.41	927.7 ± 0.42	918.46 ± 0.43
x1 = 0.9214	958.96 ± 0.39	950.13 ± 0.4	941.21 ± 0.41	932.19 ± 0.42	923.04 ± 0.43
x1 = 0.979	963.65 ± 0.4	954.92 ± 0.4	946.08 ± 0.41	937.17 ± 0.42	928.12 ± 0.43
x1 = 1	965.54 ± 0.39	956.83 ± 0.4	948.03 ± 0.4	939.14 ± 0.41	930.13 ± 0.42
